Several values for one entry are separate records, joined by “and”; a condition that tells them apart may be missing. Equal values may be shown once. Inconclusive results and toxic doses are left out. How the source made its calls: active means survival T/C of 150% or more; inactive means T/C below 125% in these data.
System: P388 leukemia ip, CD2F1 mice, survival T/C
Test: NCI In Vivo Anticancer Drug Screen. Data for tumor model P388 Leukemia (intraperitoneal) in CD2F1 (CDF1) mice
Settings: endpoint: median survival time, higher = longer survival
Summary of the method: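 Mice carrying the transplanted tumor received test compound or vehicle. Survival was recorded in each group, and the value is the treated-group measurement divided by that of the vehicle-treated control group.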

[1] = dose: 50.0 mg/kg/injection, schedule: Q01DX005 (ip), vehicle: saline with Tween-80
[2] = dose: 100.0 mg/kg/injection, schedule: Q01DX005 (ip), vehicle: saline with Tween-80
[3] = dose: 200.0 mg/kg/injection, schedule: Q01DX005 (ip), vehicle: saline with Tween-80
[4] = dose: 400.0 mg/kg/injection, schedule: Q01DX005 (ip), vehicle: saline with Tween-80
[5] = dose: 100.0 mg/kg/injection, schedule: Q01DX001 (ip), vehicle: saline with Tween-80
[6] = dose: 200.0 mg/kg/injection, schedule: Q01DX001 (ip), vehicle: saline with Tween-80
[7] = dose: 400.0 mg/kg/injection, schedule: Q01DX001 (ip), vehicle: saline with Tween-80
[8] = dose: 50.0 mg/kg/injection, schedule: Q01DX009 (ip), vehicle: saline with Tween-80
[9] = dose: 100.0 mg/kg/injection, schedule: Q01DX009 (ip), vehicle: saline with Tween-80
[10] = dose: 200.0 mg/kg/injection, schedule: Q01DX009 (ip), vehicle: saline with Tween-80
[11] = dose: 25.0 mg/kg/injection, schedule: Q01DX005 (ip), vehicle: Klucel (hydroxypropylcellulose) (HPC)
[12] = dose: 50.0 mg/kg/injection, schedule: Q01DX005 (ip), vehicle: Klucel (hydroxypropylcellulose) (HPC)
[13] = dose: 100.0 mg/kg/injection, schedule: Q01DX005 (ip), vehicle: Klucel (hydroxypropylcellulose) (HPC)
[14] = dose: 200.0 mg/kg/injection, schedule: Q01DX005 (ip), vehicle: Klucel (hydroxypropylcellulose) (HPC)
[15] = dose: 60.0 mg/kg/injection, schedule: Q01DX005 (ip), vehicle: saline with Tween-80
[16] = dose: 120.0 mg/kg/injection, schedule: Q01DX005 (ip), vehicle: saline with Tween-80
[17] = dose: 240.0 mg/kg/injection, schedule: Q01DX005 (ip), vehicle: saline with Tween-80
[18] = dose: 50.0 mg/kg/injection, schedule: Q01DX009 (ip), vehicle: saline
[19] = dose: 100.0 mg/kg/injection, schedule: Q01DX009 (ip), vehicle: saline

Measured: T/C

O=C(C1CCCCC1)C1CCCCC1CC1CCCCC1 (stereo not drawn)
inactive: [1] 102 % of control | [2] 107 % of control | [3] 107 % of control

CNC(=O)c1cc2ccccc2o/c1=N/NC(N)=O
inactive: dose: 100.0 mg/kg/injection, schedule: Q01DX001 (ip), vehicle: saline 103 % of control | dose: 200.0 mg/kg/injection, schedule: Q01DX001 (ip), vehicle: saline 103 % of control | dose: 400.0 mg/kg/injection, schedule: Q01DX001 (ip), vehicle: saline 96 % of control

CN(O)C(=O)CN
inactive: [1] 102 % of control | [2] 102 % of control | [3] 98 % of control | [4] 100 % of control

Cc1c(Br)sc2ccc3ccccc3c12
inactive: [5] 103 % of control | [6] 106 % of control | [7] 103 % of control

O=c1oc2nc(-c3ccccc3)[nH]c(=O)c2c(O)c1Cc1ccccc1
inactive: dose: 15.0 mg/kg/injection, schedule: Q01DX005 (ip), vehicle: Klucel (hydroxypropylcellulose) (HPC) 97 % of control | dose: 30.0 mg/kg/injection, schedule: Q01DX005 (ip), vehicle: Klucel (hydroxypropylcellulose) (HPC) 98 % of control | dose: 60.0 mg/kg/injection, schedule: Q01DX005 (ip), vehicle: Klucel (hydroxypropylcellulose) (HPC) 95 % of control and 96 % of control

Cc1ncc2c(c1O)COC2C (stereo not drawn)
inactive: dose: 60.0 mg/kg/injection, schedule: Q01DX005 (ip), vehicle: saline 100 % of control | dose: 120.0 mg/kg/injection, schedule: Q01DX005 (ip), vehicle: saline 97 % of control | dose: 240.0 mg/kg/injection, schedule: Q01DX005 (ip), vehicle: saline 99 % of control

CC(=O)Sc1ccccc1C(=O)NCc1ccc(Cl)cc1
inactive: [8] 117 % of control | [9] 104 % of control | [10] 120 % of control

CN=C(NC)NCCSCc1ccc2ccccc2n1
inactive: dose: 12.5 mg/kg/injection, schedule: Q01DX005 (ip), vehicle: saline 115 % of control | dose: 25.0 mg/kg/injection, schedule: Q01DX005 (ip), vehicle: saline 118 % of control | dose: 50.0 mg/kg/injection, schedule: Q01DX005 (ip), vehicle: saline 102 % of control and 112 % of control

O=c1nc(Cl)c2ccccc2c2ccccc12
inactive: [5] 96 % of control | [2] 96 % of control | [6] 97 % of control | [3] 97 % of control | [7] 87 % of control | [4] 87 % of control

O=C(O)c1cccc2c1C(=O)N(c1ccc3c(c1)Cc1ccccc1-3)C2=O
inactive: [11] 97 % of control | [12] 98 % of control | [13] 95 % of control | [14] 96 % of control

COCc1ccnn1-c1ccccc1C
inactive: [15] 97 % of control | [16] 97 % of control | [17] 104 % of control

CCCCOC(=O)NC(=O)c1cc2ccc(N(CC)CC)cc2oc1=O
inactive: [15] 95 % of control | [16] 87 % of control | [17] 87 % of control

C/C(N=NC(=S)N1CCCC(C)C1)=C1\C=CC=CN1O (stereo not drawn)
inactive: [1] 101 % of control | [2] 98 % of control | [3] 112 % of control

C=CC1(C)CCC2C(=CCC3C2(C)CC(O)C(O)C3(C)COC2OC(CO)C(O)C(O)C2O)C1 (stereo not drawn)
inactive: dose: 1.5 mg/kg/injection, schedule: Q01DX009 (ip), vehicle: Klucel (hydroxypropylcellulose) (HPC) 103 % of control | dose: 3.0 mg/kg/injection, schedule: Q01DX009 (ip), vehicle: Klucel (hydroxypropylcellulose) (HPC) 106 % of control | dose: 6.0 mg/kg/injection, schedule: Q01DX009 (ip), vehicle: Klucel (hydroxypropylcellulose) (HPC) 116 % of control | dose: 12.0 mg/kg/injection, schedule: Q01DX009 (ip), vehicle: Klucel (hydroxypropylcellulose) (HPC) 108 % of control | dose: 12.5 mg/kg/injection, schedule: Q01DX009 (ip), vehicle: saline 99 % of control | dose: 24.0 mg/kg/injection, schedule: Q01DX009 (ip), vehicle: Klucel (hydroxypropylcellulose) (HPC) 108 % of control | dose: 25.0 mg/kg/injection, schedule: Q01DX009 (ip), vehicle: saline 100 % of control | [18] 98 % of control | [19] 93 % of control

S=C(SCc1cc(Cl)cc2c1OCOC2)N1CCSCC1
inactive: [15] 105 % of control | [16] 92 % of control | [17] 92 % of control

O=C1CSC(c2ccc(C(F)(F)F)cc2)N1c1nncs1 (stereo not drawn)
inactive: [15] 99 % of control | [16] 104 % of control | [17] 97 % of control

O=S1(=O)CC(N2CCCCC2)C2=C(O1)c1ccccc1N(c1ccccc1)C2 (stereo not drawn)
inactive: [8] 97 % of control | [9] 96 % of control | [10] 97 % of control

O=C1C=CC2(CC(O)OC3=C2C(=O)c2oc4cc(O)c(O)cc4c2C3=O)O1 (stereo not drawn)
inactive: dose: 10.0 mg/kg/injection, schedule: Q01DX009 (ip), vehicle: Klucel (hydroxypropylcellulose) (HPC) 102 % of control | dose: 20.0 mg/kg/injection, schedule: Q01DX009 (ip), vehicle: Klucel (hydroxypropylcellulose) (HPC) 109 % of control | dose: 40.0 mg/kg/injection, schedule: Q01DX009 (ip), vehicle: Klucel (hydroxypropylcellulose) (HPC) 105 % of control | dose: 80.0 mg/kg/injection, schedule: Q01DX009 (ip), vehicle: Klucel (hydroxypropylcellulose) (HPC) 111 % of control

Cn1nnc(-c2ccc(C(=O)O)cc2)n1
inactive: [12] 91 % of control | [13] 91 % of control

CCC(=O)NC1=C(Cl)C(=O)C(Cl)=C(Cl)C1=O
inactive: dose: 3.13 mg/kg/injection, schedule: Q01DX009 (ip), vehicle: saline with Tween-80 111 % of control | dose: 6.25 mg/kg/injection, schedule: Q01DX009 (ip), vehicle: saline with Tween-80 103 % of control

Cn1c(=O)c2nc3n(c2n(C)c1=O)CCC(C)(c1ccccc1)O3 (stereo not drawn)
inactive: [15] 96 % of control | [16] 91 % of control | [17] 91 % of control

Nc1nnc2cc(Cl)ccc2n1
inactive: [11] 98 % of control | [12] 96 % of control | [13] 98 % of control | [14] 98 % of control

CCn1c(=O)c2ncnnc2n(CC)c1=O
inactive: dose: 6.25 mg/kg/injection, schedule: Q01DX009 (ip), vehicle: Klucel (hydroxypropylcellulose) (HPC) 104 % of control | dose: 12.5 mg/kg/injection, schedule: Q01DX009 (ip), vehicle: Klucel (hydroxypropylcellulose) (HPC) 111 % of control

C1=Cc2ccccc2C(=C2CCOCC2)c2ccccc21
inactive: [18] 113 % of control | [19] 100 % of control | dose: 200.0 mg/kg/injection, schedule: Q01DX009 (ip), vehicle: saline 94 % of control

COc1cc2c(c3c1c(=O)c1ccccc1n3C)C=C([N+](=O)[O-])C(C)(C)O2
inactive: dose: 3.0 mg/kg/injection, schedule: Q01DX005 (ip), vehicle: saline + Tween-80 + alcohol 116 % of control | dose: 6.0 mg/kg/injection, schedule: Q01DX005 (ip), vehicle: saline + Tween-80 + alcohol 116 % of control | dose: 12.0 mg/kg/injection, schedule: Q01DX005 (ip), vehicle: saline + Tween-80 + alcohol 108 % of control

Cc1nc(C)n2ncnc2c1C
inactive: dose: 100.0 mg/kg/injection, schedule: Q04DX003 (ip), vehicle: saline 93 % of control | dose: 200.0 mg/kg/injection, schedule: Q04DX003 (ip), vehicle: saline 102 % of control | dose: 400.0 mg/kg/injection, schedule: Q04DX003 (ip), vehicle: saline 95 % of control

From PubChem BioAssay AID330 (DTP/NCI, 2004)
